Assay results: article PMC6513986, “Molecular basis for heat desensitization of TRPV1 ion channels” (Nature Communications, 2019)
Read-outs that look alike come from different tables or passages of the source.

Tests used:
[1] = biological target: T1, mouse TRPV1 (mV1) (Mus musculus, UniProt Q704Y3); test: Agonist activation, patch clamp, HEK293T; format: cell-based; details: read-out: EC50_Capsaicin
[2] = biological target: platypus TRPV1 (pV1) (Ornithorhynchus anatinus, UniProt F7A7B4); test: Agonist activation, patch clamp, HEK293T; format: cell-based; details: for EC50_Capsaicin: Supp Table 1 data
[3] = biological target: Fruit bat TRPV1 (Carollia brevicauda, UniProt G1DJ79); test: Agonist activation, patch clamp, HEK293T; format: cell-based; details: read-out: EC50_Capsaicin
[4] = biological target: Tree shrew TRPV1 (Tupaia chinensis, UniProt L8Y7X1); test: Agonist activation, patch clamp, HEK293T; format: cell-based, Tupaia belangeri chinensis; details: read-out: EC50_Capsaicin
[5] = biological target: mV1 CΔ30 (Glu747-Phe776) (Mus musculus, UniProt Q704Y3, DEL747-776); test: Agonist activation, patch clamp, HEK293T; format: cell-based; details: read-out: EC50_Capsaicin
[6] = biological target: mV1 CΔ23 (Ser777-Asp799) (Mus musculus, UniProt Q704Y3, DEL777-799); test: Agonist activation, patch clamp, HEK293T; format: cell-based; details: read-out: EC50_Capsaicin
[7] = biological target: mV1 CΔ28 (Ala800-Ala827) (Mus musculus, UniProt Q704Y3, DEL800-827); test: Agonist activation, patch clamp, HEK293T; format: cell-based; details: read-out: EC50_Capsaicin
[8] = biological target: mV1 F830A (Mus musculus, UniProt Q704Y3, F830A); test: Agonist activation, patch clamp, HEK293T; format: cell-based; details: read-out: EC50_Capsaicin
[9] = biological target: mV1 K831A (Mus musculus, UniProt Q704Y3, K831A); test: Agonist activation, patch clamp, HEK293T; format: cell-based; details: read-out: EC50_Capsaicin
[10] = biological target: mV1 D832A (Mus musculus, UniProt Q704Y3, D832A); test: Agonist activation, patch clamp, HEK293T; format: cell-based; details: read-out: EC50_Capsaicin
[11] = biological target: mV1 S833A (Mus musculus, UniProt Q704Y3, S833A); test: Agonist activation, patch clamp, HEK293T; format: cell-based; details: read-out: EC50_Capsaicin
[12] = biological target: mV1 M834A (Mus musculus, UniProt Q704Y3, M834A); test: Agonist activation, patch clamp, HEK293T; format: cell-based; details: read-out: EC50_Capsaicin
[13] = biological target: mV1 P836A (Mus musculus, UniProt Q704Y3, P836A); test: Agonist activation, patch clamp, HEK293T; format: cell-based; details: read-out: EC50_Capsaicin
[14] = biological target: pV1_241 (ANAP) (Ornithorhynchus anatinus, UniProt F7A7B4); test: Agonist activation of ANAP-incorporated channel, patch clamp; format: cell-based, platypus
[15] = biological target: mV1_654 (ANAP) (Mus musculus, UniProt Q704Y3, Y654X); test: as above; format: cell-based
[16] = biological target: mV1_685 (ANAP) (Mus musculus, UniProt Q704Y3, E685X); test: as above; format: cell-based
[17] = biological target: T1, mouse TRPV1 (mV1); details: cited from earlier work
Protocol: The heat activation threshold of pV1, at ~35 °C, is slightly higher than the body core temperature of platypus (32 °C)[17],[18] (Fig. 1b, c), again reminiscent of ot ...

[18] = biological target: pV1_643 (ANAP) (Ornithorhynchus anatinus, UniProt F7A7B4, S634X)
[19] = test system: TRPV1; details: cited from earlier work
[20] = test system: rTRPV1; set-up: method as in Sanchez-Moreno et al; details: 4 μM capsaicin, ref Sanchez-Moreno et al; cited from earlier work

Sequence of Fruit bat TRPV1 (G1DJ79 1-838): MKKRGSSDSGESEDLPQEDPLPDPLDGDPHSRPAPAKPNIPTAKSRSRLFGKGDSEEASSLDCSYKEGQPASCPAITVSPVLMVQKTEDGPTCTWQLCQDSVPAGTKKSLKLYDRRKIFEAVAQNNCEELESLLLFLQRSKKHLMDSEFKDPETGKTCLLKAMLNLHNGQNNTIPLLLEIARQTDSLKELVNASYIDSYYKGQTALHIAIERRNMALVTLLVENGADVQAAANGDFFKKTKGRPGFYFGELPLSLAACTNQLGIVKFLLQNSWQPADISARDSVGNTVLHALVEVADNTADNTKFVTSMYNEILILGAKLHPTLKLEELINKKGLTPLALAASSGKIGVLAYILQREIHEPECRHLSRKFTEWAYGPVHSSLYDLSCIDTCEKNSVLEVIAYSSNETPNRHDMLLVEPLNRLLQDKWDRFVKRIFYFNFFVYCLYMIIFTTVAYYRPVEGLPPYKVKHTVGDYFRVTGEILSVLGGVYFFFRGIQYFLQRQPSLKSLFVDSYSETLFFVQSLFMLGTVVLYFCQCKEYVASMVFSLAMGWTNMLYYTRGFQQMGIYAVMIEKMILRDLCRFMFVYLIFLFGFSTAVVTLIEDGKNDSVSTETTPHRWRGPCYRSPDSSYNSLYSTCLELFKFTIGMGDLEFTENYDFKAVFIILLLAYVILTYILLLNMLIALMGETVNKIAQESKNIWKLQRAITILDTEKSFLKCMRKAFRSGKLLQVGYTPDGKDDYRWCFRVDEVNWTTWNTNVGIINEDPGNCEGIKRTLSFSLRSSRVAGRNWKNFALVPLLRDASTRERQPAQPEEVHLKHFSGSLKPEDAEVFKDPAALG
Sequence of Tree shrew TRPV1 (L8Y7X1 1-828): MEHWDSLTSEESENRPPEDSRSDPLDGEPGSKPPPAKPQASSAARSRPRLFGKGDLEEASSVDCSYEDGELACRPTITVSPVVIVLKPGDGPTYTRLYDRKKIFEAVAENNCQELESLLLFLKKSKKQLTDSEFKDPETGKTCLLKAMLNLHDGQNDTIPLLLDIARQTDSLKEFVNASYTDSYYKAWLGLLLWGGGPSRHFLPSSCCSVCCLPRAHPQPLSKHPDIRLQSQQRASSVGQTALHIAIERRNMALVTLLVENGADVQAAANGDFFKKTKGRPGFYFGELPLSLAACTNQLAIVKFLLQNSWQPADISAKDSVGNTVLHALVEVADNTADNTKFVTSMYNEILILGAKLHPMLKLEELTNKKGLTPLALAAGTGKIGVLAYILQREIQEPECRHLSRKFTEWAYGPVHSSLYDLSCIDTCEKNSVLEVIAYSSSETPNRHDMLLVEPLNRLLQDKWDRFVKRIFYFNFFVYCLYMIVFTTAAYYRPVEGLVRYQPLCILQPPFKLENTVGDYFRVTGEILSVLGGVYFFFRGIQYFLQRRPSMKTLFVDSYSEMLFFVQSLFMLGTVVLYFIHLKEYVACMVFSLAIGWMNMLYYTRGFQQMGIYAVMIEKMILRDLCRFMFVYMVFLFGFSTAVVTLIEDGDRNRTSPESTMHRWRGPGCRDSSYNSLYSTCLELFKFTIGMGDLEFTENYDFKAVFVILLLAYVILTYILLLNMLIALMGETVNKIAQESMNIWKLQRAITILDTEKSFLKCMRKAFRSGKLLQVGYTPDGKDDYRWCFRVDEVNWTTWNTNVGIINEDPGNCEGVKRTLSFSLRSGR
Sequence of mV1 CΔ30 (Glu747-Phe776) (Q704Y3 with tags, fused parts or gaps DEL747-776): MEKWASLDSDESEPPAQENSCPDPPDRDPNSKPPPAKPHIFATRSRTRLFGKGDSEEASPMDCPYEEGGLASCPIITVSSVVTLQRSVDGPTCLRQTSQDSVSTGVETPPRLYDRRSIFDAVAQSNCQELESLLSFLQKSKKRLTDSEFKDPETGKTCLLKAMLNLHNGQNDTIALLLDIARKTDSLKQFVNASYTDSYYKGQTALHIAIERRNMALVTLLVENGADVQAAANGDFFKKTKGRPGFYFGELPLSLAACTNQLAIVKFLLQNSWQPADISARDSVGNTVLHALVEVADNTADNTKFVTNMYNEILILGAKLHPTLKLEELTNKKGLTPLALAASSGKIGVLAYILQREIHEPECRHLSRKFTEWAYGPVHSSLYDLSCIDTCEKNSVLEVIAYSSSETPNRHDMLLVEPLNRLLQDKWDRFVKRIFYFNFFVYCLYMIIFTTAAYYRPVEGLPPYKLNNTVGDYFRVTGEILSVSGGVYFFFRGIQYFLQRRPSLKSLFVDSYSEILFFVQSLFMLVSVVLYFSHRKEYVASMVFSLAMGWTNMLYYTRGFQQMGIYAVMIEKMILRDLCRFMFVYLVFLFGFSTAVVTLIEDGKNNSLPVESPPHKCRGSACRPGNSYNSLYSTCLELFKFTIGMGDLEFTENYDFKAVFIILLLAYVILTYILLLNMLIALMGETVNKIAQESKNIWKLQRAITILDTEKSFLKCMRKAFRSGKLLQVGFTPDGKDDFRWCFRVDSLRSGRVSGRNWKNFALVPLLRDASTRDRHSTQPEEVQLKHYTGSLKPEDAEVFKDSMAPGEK
Sequence of mV1 F830A (Q704Y3 whole entry F830A): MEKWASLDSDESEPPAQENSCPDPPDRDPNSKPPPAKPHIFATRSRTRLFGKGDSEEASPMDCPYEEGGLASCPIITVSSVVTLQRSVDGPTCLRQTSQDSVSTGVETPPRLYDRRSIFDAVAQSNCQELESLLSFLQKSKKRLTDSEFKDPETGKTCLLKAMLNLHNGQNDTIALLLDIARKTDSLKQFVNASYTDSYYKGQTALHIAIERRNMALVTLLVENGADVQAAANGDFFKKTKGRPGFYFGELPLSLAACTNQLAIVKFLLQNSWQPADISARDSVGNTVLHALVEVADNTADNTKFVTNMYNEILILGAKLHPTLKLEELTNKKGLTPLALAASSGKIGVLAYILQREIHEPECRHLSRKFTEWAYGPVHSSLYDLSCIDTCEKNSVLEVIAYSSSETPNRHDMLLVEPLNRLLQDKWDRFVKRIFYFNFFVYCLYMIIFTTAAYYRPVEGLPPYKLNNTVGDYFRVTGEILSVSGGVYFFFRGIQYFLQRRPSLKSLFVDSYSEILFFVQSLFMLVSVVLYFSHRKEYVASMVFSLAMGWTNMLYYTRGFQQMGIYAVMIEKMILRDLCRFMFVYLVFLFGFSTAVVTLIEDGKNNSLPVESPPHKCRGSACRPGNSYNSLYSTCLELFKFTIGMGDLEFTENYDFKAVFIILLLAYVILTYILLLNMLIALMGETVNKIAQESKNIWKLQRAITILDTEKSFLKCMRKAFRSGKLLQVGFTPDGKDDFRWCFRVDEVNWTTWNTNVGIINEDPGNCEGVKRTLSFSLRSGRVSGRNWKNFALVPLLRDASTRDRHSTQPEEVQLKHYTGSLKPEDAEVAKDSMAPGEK
Sequence of mV1 K831A (Q704Y3 whole entry K831A): as the sequence (Q704Y3 whole entry F830A) above, with A830F, K831A counted along it
Sequence of mV1 CΔ23 (Ser777-Asp799) (Q704Y3 with tags, fused parts or gaps DEL777-799): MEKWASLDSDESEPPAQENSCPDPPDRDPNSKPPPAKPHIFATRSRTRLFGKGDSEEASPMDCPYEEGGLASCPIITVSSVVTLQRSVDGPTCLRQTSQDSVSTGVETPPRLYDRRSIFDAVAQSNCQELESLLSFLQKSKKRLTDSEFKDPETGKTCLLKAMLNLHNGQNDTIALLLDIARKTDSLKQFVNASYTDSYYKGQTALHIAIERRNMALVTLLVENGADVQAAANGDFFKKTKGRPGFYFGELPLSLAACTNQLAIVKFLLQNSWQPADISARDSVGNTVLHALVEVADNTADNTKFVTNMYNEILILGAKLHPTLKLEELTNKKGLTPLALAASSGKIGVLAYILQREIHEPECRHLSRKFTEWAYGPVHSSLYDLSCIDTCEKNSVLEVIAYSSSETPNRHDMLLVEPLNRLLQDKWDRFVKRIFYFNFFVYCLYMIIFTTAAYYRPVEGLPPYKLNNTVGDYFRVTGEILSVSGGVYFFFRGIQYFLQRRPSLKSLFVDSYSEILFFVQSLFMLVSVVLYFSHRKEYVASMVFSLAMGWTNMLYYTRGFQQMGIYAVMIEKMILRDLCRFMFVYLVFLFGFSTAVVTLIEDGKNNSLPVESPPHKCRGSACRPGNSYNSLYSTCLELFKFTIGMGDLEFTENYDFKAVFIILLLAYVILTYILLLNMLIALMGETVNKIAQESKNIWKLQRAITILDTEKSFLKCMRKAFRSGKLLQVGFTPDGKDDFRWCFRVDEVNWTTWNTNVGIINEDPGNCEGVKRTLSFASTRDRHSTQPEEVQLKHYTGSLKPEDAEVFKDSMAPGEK
Sequence of mV1 S833A (Q704Y3 whole entry S833A): as the sequence (Q704Y3 whole entry F830A) above, with A830F, S833A counted along it
Sequence of mV1 M834A (Q704Y3 whole entry M834A): as the sequence (Q704Y3 whole entry F830A) above, with A830F, M834A counted along it
Sequence of mV1 D832A (Q704Y3 whole entry D832A): as the sequence (Q704Y3 whole entry F830A) above, with A830F, D832A counted along it
Sequence of mV1 P836A (Q704Y3 whole entry P836A): as the sequence (Q704Y3 whole entry F830A) above, with A830F, P836A counted along it
T1 sequence (Q704Y3 whole entry): as the sequence (Q704Y3 whole entry F830A) above, with A830F counted along it

SMILES: COc1cc(CNC(=O)CCCC/C=C/C(C)C)ccc1O [Capsaicin, capsaicin]
- EC50 ([1]; Supp Table 1 data, replicate 1): 249 nM
- EC50 ([1]; Supp Table 1 data, replicate 2): 299 nM
- EC50 ([1]; Supp Table 2 data, replicate 1): 277 nM
- EC50 ([1]; Supp Table 2 data, replicate 2): 302 nM
- EC50 ([1]; Supp Table 3 data, replicate 1): 276 nM
- EC50 ([1]; Supp Table 3 data, replicate 2): 306 nM
- EC50 ([1]; Supp Table 3 data, replicate 3): 315 nM
- EC50 ([1]; Supp Table 4 data, replicate 1): 297 nM
- EC50 ([1]; Supp Table 4 data, replicate 2): 279 nM
- EC50 ([1]; Supp Table 4 data, replicate 3): 321 nM
- EC50_Capsaicin ([2]; replicate 1): 367 nM
- EC50_Capsaicin ([2]; replicate 2): 246 nM
- EC50_Capsaicin ([2]; replicate 4): 271 nM
- EC50_Capsaicin ([2]; replicate 5): 368 nM
- activation of pV1 by capsaicin ([2]; whole-cell, 10 μM): currents elicited
- EC50 ([3]; mean ± s.e.m., n = 6): 354 ± 25 nM
- EC50 ([3]; replicate 1): 273 nM
- EC50 ([3]; replicate 2): 389 nM
- EC50 ([3]; replicate 3): 419 nM
- EC50 ([3]; replicate 4): 415 nM
- EC50 ([3]; replicate 5): 274 nM
- EC50 ([3]; replicate 6): 354 nM
- EC50 ([4]; mean ± s.e.m., n = 3): 5.26 µM
- EC50 ([4]; replicate 1): 4.932 µM
- EC50 ([4]; replicate 2): 5.507 µM
- EC50 ([4]; replicate 3): 5.341 µM
- EC50 ([5]; mean ± s.e.m., n = 5): 372 nM
- EC50 ([5]; replicate 1): 252 nM
- EC50 ([5]; replicate 2): 260 nM
- EC50 ([5]; replicate 3): 424 nM
- EC50 ([5]; replicate 4): 463 nM
- EC50 ([5]; replicate 5): 461 nM
- EC50 ([6]; mean ± s.e.m., n = 3): 398 nM
- EC50 ([6]; replicate 1): 320 nM
- EC50 ([6]; replicate 2): 353 nM
- EC50 ([6]; replicate 3): 521 nM
- EC50 ([7]; mean ± s.e.m., n = 3): 343 nM
- EC50 ([7]; replicate 1): 256 nM
- EC50 ([7]; replicate 2): 365 nM
- EC50 ([7]; replicate 3): 408 nM
- EC50 ([8]; mean ± s.e.m., n = 3): 338 nM
- EC50 ([8]; replicate 1): 286 nM
- EC50 ([8]; replicate 2): 398 nM
- EC50 ([8]; replicate 3): 330 nM
- EC50 ([9]; mean ± s.e.m., n = 3): 354 nM
- EC50 ([9]; replicate 1): 417 nM
- EC50 ([9]; replicate 2): 355 nM
- EC50 ([9]; replicate 3): 290 nM
- EC50 ([10]; mean ± s.e.m., n = 3): 361 nM
- EC50 ([10]; replicate 1): 372 nM
- EC50 ([10]; replicate 2): 282 nM
- EC50 ([10]; replicate 3): 429 nM
- EC50 ([11]; mean ± s.e.m., n = 3): 344 nM
- EC50 ([11]; replicate 1): 361 nM
- EC50 ([11]; replicate 2): 282 nM
- EC50 ([11]; replicate 3): 389 nM
- EC50 ([12]; mean ± s.e.m., n = 3): 329 ± 23 nM
- EC50 ([12]; replicate 1): 280 nM
- EC50 ([12]; replicate 2): 378 nM
- EC50 ([12]; replicate 3): 329 nM
- EC50 ([13]; mean ± s.e.m., n = 3): 315 nM
- EC50 ([13]; replicate 1): 262 nM
- EC50 ([13]; replicate 2): 364 nM
- EC50_Capsaicin ([14]; replicate 3): 288 nM
- EC50_Capsaicin ([14]; replicate 5): 322 nM
- EC50_Capsaicin ([14]; replicate 6): 342 nM
- EC50 [15]: 304 nM
- EC50_Capsaicin ([15]; replicate 1): 324 nM
- EC50_Capsaicin ([15]; replicate 2): 298 nM
- EC50_Capsaicin ([15]; replicate 3): 284 nM
- EC50_Capsaicin ([15]; replicate 4): 310 nM
- EC50_Capsaicin ([15]; replicate 5): 267 nM
- EC50_Capsaicin ([15]; replicate 6): 341 nM
- EC50 [16]: 295 nM
- EC50_Capsaicin ([16]; replicate 1): 321 nM
- EC50_Capsaicin ([16]; replicate 3): 335 nM
- EC50_Capsaicin ([16]; replicate 4): 287 nM
- EC50_Capsaicin ([16]; replicate 5): 299 nM
- EC50_Capsaicin ([16]; replicate 6): 268 nM
- EC50_Capsaicin ([16]; replicate 7): 335 nM
- EC50_Capsaicin ([16]; replicate 8): 254 nM
- capsaicin sensitivity of heat-desensitized channels [17]: less sensitive
- EC50_Capsaicin ([18]; replicate 1): 323 nM
- EC50_Capsaicin ([18]; replicate 2): 276 nM
- EC50_Capsaicin ([18]; replicate 3): 290 nM
- EC50_Capsaicin ([18]; replicate 4): 327 nM
- EC50_Capsaicin ([18]; replicate 6): 351 nM
- effect of capsaicin administration [19]: a burning sensation and acute drop in body core temperature (hypothermia)
- capsaicin sensitivity of heat-desensitized rTRPV1 [20]: insensitive
